Data reported in the supplement of paper PMC13380429.

Tests used:
Conditions in all cases: 72 h
[1] = system: Calu-3; experiment: relative viability EC50 (midpoint between 100% and the lowest measured viability); higher = less toxic
[2] = system: Vero E6; experiment: as above
[3] = system: U2OS; experiment: as above
[4] = system: HepG2; experiment: as above
[5] = system: Caco-2; experiment: as above
[6] = system: Calu-3; experiment: drug sensitivity score (DSS) for viability; higher = more toxic; extreme values may be limits of the assay
[7] = system: Vero E6; experiment: as above
[8] = system: U2OS; experiment: as above
[9] = system: HepG2; experiment: as above
[10] = system: Caco-2; experiment: as above
[11] = system: Calu-3; experiment: cell viability relative to DMSO; higher = less toxic
[12] = system: Vero E6; experiment: as above
[13] = system: U2OS; experiment: as above
[14] = system: HepG2; experiment: as above
[15] = system: Caco-2; experiment: as above

SMILES	relative viability EC50 [1] [µM]	relative viability EC50 [2] [µM]	relative viability EC50 [3] [µM]	relative viability EC50 [4] [µM]	relative viability EC50 [5] [µM]	drug sensitivity score [6]	drug sensitivity score [7]	drug sensitivity score [8]	drug sensitivity score [9]	drug sensitivity score [10]	cell viability ([11]; 1 nM) [%]	cell viability ([11]; 10 nM) [%]	cell viability ([11]; 100 nM) [%]	cell viability ([11]; 1000 nM) [%]	cell viability ([11]; 10000 nM) [%]	cell viability ([12]; 1 nM) [%]	cell viability ([12]; 10 nM) [%]	cell viability ([12]; 100 nM) [%]	cell viability ([12]; 1000 nM) [%]	cell viability ([12]; 10000 nM) [%]	cell viability ([13]; 1 nM) [%]	cell viability ([13]; 10 nM) [%]	cell viability ([13]; 100 nM) [%]	cell viability ([13]; 1000 nM) [%]	cell viability ([13]; 10000 nM) [%]	cell viability ([14]; 1 nM) [%]	cell viability ([14]; 10 nM) [%]	cell viability ([14]; 100 nM) [%]	cell viability ([14]; 1000 nM) [%]	cell viability ([14]; 10000 nM) [%]	cell viability ([15]; 1 nM) [%]	cell viability ([15]; 10 nM) [%]	cell viability ([15]; 100 nM) [%]	cell viability ([15]; 1000 nM) [%]	cell viability ([15]; 10000 nM) [%]
Cc1cc(O)c2c(=O)c3c(O)cc(O)c4c5c(O)cc(O)c6c(=O)c7c(O)cc(C)c8c1c2c(c34)c(c78)c65 [hypericin]	> 10	> 10	> 10	> 10	> 10	0.3	0	1.4	0.4	0	106	101	94	110	79.7	96.3	91.3	101	80.7	95.7	102	94.6	91.2	96.2	77.1	108	106	103	101	81.9	104	101	104	99.4	98.3
O=S(=O)(O)CCSSCCS(=O)(=O)O [dimesna]	> 10	> 10	> 10	> 10	> 10	1.4	0	0	0	0	96.8	96.3	85.7	90.7	86.2	101	108	104	98.5	100	104	98.7	103	104	101	94.6	98.8	102	98.7	97.7	95.7	99.5	101	98.5	92.5
CC(C)[C@@H]1CC[C@@H](C)C[C@H]1O [levomenthol]	> 10	> 10	> 10	> 10	> 10	0	0	0	0	0	98	92.9	88.9	96.8	90.5	95.3	108	101	91.2	94.9	105	101	101	101	95.5	102	92.8	101	104	103	93.3	84.4	84.7	94.4	104
Cc1ccccc1/N=N/c1ccc(NC(=O)c2ccnn2C)c(C)c1	> 10	> 10	> 10	> 10	> 10	0	0	0	0	0	112	100	97.6	99.3	90.9	97.3	92.1	95.2	94.1	108	96.7	102	100	102	93.2	107	102	104	91	97.6	90.6	94	97.9	93.8	91.5
Cc1cccn2c(=O)c(/C=C(\C#N)c3nc4ccccc4s3)c(Oc3ccc(F)cc3)nc12	> 10	> 10	> 10	> 10	> 10	0	0	0	0	0	105	97.9	101	104	106	103	100	98.9	98.7	95.8	98.3	98.2	98.2	103	99.1	103	99.6	100	99.3	102	105	96.3	113	115	119
Cn1nnc2c(C(N)=O)ncn2c1=O [temozolomide]	> 10	> 10	> 10	> 10	> 10	0	0	0	0	0	97.6	106	102	94.5	98.6	99.4	97.5	95.9	98.2	102	98	103	92.3	96.8	95	112	99.6	104	93.5	114	90.3	97.3	96	106	99.3
CC(C)(C)N1CCC(c2ccccc2)(c2ccccc2)CC1 [budipine]	> 10	> 10	> 10	> 10	> 10	0	0	0	0	0.3	96.9	97.3	101	101	96.7	96.1	91.8	91.9	93.9	98.8	91.9	99	97.3	102	97.6	88.8	95.8	101	102	88.9	98.4	103	86.3	102	82.7
